Experimental data published in US8742121B2, “Process for the preparation of small molecule inhibitors of MDM2 and intermediates used therein” (The Regents of the University of Michigan, priority 2005, dated 2014).
Like-named read-outs stand apart in the source and are kept apart here.

Assays:
[1] = molecular target: T1, recombinant human MDM2 protein (residues 1-118, His-tag) (Homo sapiens, UniProt Q00987); assay: Fluorescence polarization (FP)-based competitive binding assay with PMDM6-F probe; details: for Ki: competition with PMDM6-F, FIG. 4B/5
T1 construct: The recombinant MDM2 human protein (residues 1-118) fused to His-tag at the N terminus; His-tag (N)

[2] = tested on: LNCaP prostate cancer cells (p53 wild-type); assay: WST-8 cell growth inhibition assay, LNCaP; type: cell-based; details: Homo sapiens, 96 h
[3] = tested on: PrEC normal prostate epithelial cells; assay: Protection of normal cells from TAXOL (trypan blue viability); type: cell-based, human; details: pretreatment 1 μM and 2.5 μM for 24 hours, then 1 μM TAXOL for 2 days, FIG. 15
Description: PrEC normal prostate epithelial cells were seeded in 6 well pates and incubated with Ke-63 (1 μM and 2.5 μM) for 24 hours, then 1 μM TAXOL (paclitaxel) was added for 2 days. Trypan blue was used to determine cell viability.

[4] = tested on: RKO (wild-type p53) colon cancer cells; assay: Cell death (trypan blue) and apoptosis (sub-diploid DNA, PI staining); type: cell-based; details: 4 days; RKO compared with HT-29 and CCD-18Co, FIG. 13
Description: RKO (wild-type p53) and HT-29 (mutant p53) colon cancer cell lines and CCD-18Co normal colon fibroblast cells were treated with increasing doses of Ke-43 or Ke-61 for 4 days in 6-well Petri dishes. Trypan blue dye exclusion assays were performed to determine the ability of the inhibitors to induce cell death. After 4 days of treatment, floating and adherent cells were harvested and stained with 0.2% of trypan blue solution (Sigma, St Louis, Mo.). Each treatment was performed in triplicate and at least 100 cells were counted. Cells stained blue or morphologically unhealthy cells were scored as dead cells. To evaluate apoptosis, sub-diploid DNA content in cells treated with or without test inhibitors was analyzed by propidium iodide (PI) staining After washing once with cold PBS, cells were fixed in 70% ethanol for 1 day at −20° C. Ethanol-fixed cells were then washed twice with PBS and stained with a staining solution containing propidium iodide (PI) at 50 ng/ml and RNAse A at 100 ng/ml in PBS, for 20 minutes in dark at room temperature. Acquisition of cells and analysis of sub-diploid DNA content was performed by flow cytometry using CellQuest software.

[5] = tested on: CCD-18Co normal colon fibroblast cells; assay: Cell cycle progression (BrdU/7-AAD flow cytometry), CCD-18Co; type: cell-based; details: 22 + 2 hours, FIG. 14
Description: (§1) Cell cycle progression was evaluated in RKO (wild-type p53) and HT-29 (mutant p53) colon cancer cell lines and CCD-18Co normal colon fibroblast cells by determining S-phase cells by incorporation of bromodeoxyuridine (BrdU) followed by staining with FITC-labeled anti-BrdU antibody and the total DNA-content by staining with 7-aminoactinomycin D (7-AAD) according to manufacturer's instructions (BD Biosciences, San Jose, Calif.). Briefly, cancer and normal cells, after overnight incubation, were treated with out test compounds for 22 hours, followed by an additional 2 hours of incubation with 10 μM of BrdU. Cells were harvested, fixed and stained with FITC-labeled anti-BrdU and 7-AAD. Cell cycle distribution was analyzed by flow cytometry. Cells were acquired and data analyzed by using CellQuest software (BD Biosciences).

[6] = tested on: HCT116 (wild-type p53) colon cancer cells; assay: WST-8 cell growth inhibition assay, HCT116; type: cell-based
[7] = tested on: RKO (wild-type p53) colon cancer cells; assay: WST-8 cell growth inhibition assay, RKO; type: cell-based
[8] = tested on: p53, MDM2 and p21 expression in RKO (wild-type p53) cells; assay: Western blot of p53 and its target gene products MDM2 and p21; type: cell-based; details: 24 hours; RKO compared with HT-29 (mutant p53), FIG. 12
Description: Cancer cells were treated with test compounds or 0.1% DMSO for 24 hours. Cells were harvested by trypsinization and washed with cold phosphate buffer saline, pH 7.5 (Invitrogen, Carlsbad, Calif.). Cells were lysed for 30 minutes in ice-cold lysis buffer (50 mM Tris (pH 7.5), 150 mM NaCl, 1 mM EDTA (pH 8.0), 25 mM sodium fluoride, 1% NP-40 and 0.1% SDS) containing 2 mM sodium orthovanadate, 1 mM phenylmethylsulfonyl fluoride and protease inhibitor cocktail (Roche Applied Science, Indianapolis, Ind.). Next, cell extracts were centrifuged at 12,000×g at 4° C. for 10 minutes to obtain clarified lysates. Protein was estimated by Bio-Rad dye. Cell lysates containing […] protein were resolved on a 4-20% tris-glycine gel (Invitrogen, Carlsbad, Calif.) and transferred onto poly(vinylidene difluoride) membranes. Immunodetection of proteins on the transfer membrane was performed by using anti-p53 (Ab-6, Oncogene Research Products, Boston, Mass.), anti-MDM2 (SMP14, Santa Cruz Biotechnology, Santa Cruz, Calif.) and anti-p21 (BD Biosciences, San Diego, Calif.) mouse monoclonal antibodies. Antibody to β-actin (Sigma, St Louis, Mo.) was used to assess the protein loading.

[9] = tested on: HT-29 (mutant p53) colon cancer cells; assay: Cell cycle progression (BrdU/7-AAD flow cytometry), HT-29; type: cell-based; details: HT-29, 22 + 2 hours, FIG. 14
Description: as §1

p53-MDM2 interaction = molecular target: T2, p53-MDM2 interaction (Homo sapiens, UniProt Q00987); assay: Co-immunoprecipitation/Western blotting of p53-MDM2 interaction in HCT116 lysates; type: biochemical; details: increasing concentrations, 1 h at 4° C., FIG. 10
T2 construct: endogenous in cells; host or cells: HCT116 colon cancer cells (lysate)
Description: Co-immunoprecipitation (Co-IP)/Western blotting assays were performed to assess the effects of Ke-43 on p53-MDM2 interaction. After harvesting and washing once with cold PBS, HCT116 colon cancer cells were lysed by sonication in cold Co-IP buffer (50 mM Tris (pH 7.5), 150 mM NaCl, 1 mM EDTA (pH 8.0), 0.5% NP-40) containing 1 mM phenylmethylsulfonyl fluoride and protease inhibitor cocktail. Sonicated lysates were then centrifuged at 12,000×g at 4° C. for 15 minutes. Supernatant containing 2 mg protein was incubated in the absence or presence of Ke-43 for 1 h at 4° C., followed by addition agarose beads, conjugated either with anti-p53 antibody (FL-393, Santa Cruz) or with a non-specific antibody. After mixing for 2 h at 4° C., the agarose beads were washed 3 times with cold Co-IP buffer, boiled in sample buffer followed by SDS-PAGE and the presence of p53 and MDM2 was detected by Western blotting with mouse monoclonal antibodies against p53 and MDM-2 proteins.

[10] = tested on: RKO (wild-type p53) colon cancer cells; assay: Cell cycle progression (BrdU/7-AAD flow cytometry), RKO; type: cell-based; details: 22 + 2 hours, FIG. 14
Description: as §1

[11] = tested on: normal human prostate epithelial cells (PrEC) with wild-type p53; assay: WST-8 cell growth inhibition assay, PrEC; type: cell-based
[12] = tested on: PC-3 prostate cancer cells (p53 null); assay: WST-8 cell growth inhibition assay, PC-3
[13] = 4 days, FIG. 6, read-out: IC50 inhibition of cell growth

In the case of `CC(C)C[C@H]1N[C@@H](C(=O)N(C)C)[C@H](c2cccc(Cl)c2)[C@@]12C(=O)Nc1cc(Cl)ccc12` [Example 1b, (2′R,3S,4′R,5′R) 6-Chloro-4′-(3-Chloro-Phenyl)-2′-Isobutyl-2-Oxo-1,2-Dihydro-Spiro[Indole-3,3′-Pyrrolidine]-5′-Carboxylic Acid Dimethylamide], the Ki [1] is reported as 0.3 µM, the “times more potent than 1a (Ki)” value ([1]; relative to 1a) is reported as 28 times and the IC50 [2, 13] is reported as 2.1 µM.
For `CC(C)(C)C[C@H]1N[C@@H](C(=O)NCCN2CCOCC2)[C@H](c2cccc(Cl)c2F)[C@@]12C(=O)Nc1cc(Cl)ccc12` [Ke-63, (2′R,3S,4S,5′R) 6-Chloro-4′-(3-Chloro-2-Fluoro-Phenyl)-2′-(2,2-Dimethyl-Propyl)-2-Oxo-1,2-Dihydro-Spiro[Indole-3,3′-Pyrrolidine]-5′-Carboxylic Acid (2-Morpholin-4-yl-Ethyl)-Amide], the “protection of cells from TAXOL (cell viability)” value [3] was “cells were protected from TAXOL”.
With `CC(C)(C)C[C@H]1N[C@@H](C(=O)NCCN2CCOCC2)[C@H](c2cccc(Br)c2)[C@@]12C(=O)Nc1cc(Cl)ccc12` [Ke-43, (2′R,3S,4′R,5′R) 6-Chloro-4′-(3-Bromo-Phenyl)-2′-(2,2-Dimethyl-Propyl)-2-Oxo-1,2-Dihydro-Spiro[Indole-3,3′-Pyrrolidine]-5′-Carboxylic Acid (2-Morpholin-4-yl-Ethyl)-Amide] the “Ki values (in words)” value ([1]; Example 132, FIG. 9, more potent than the natural p53 peptide) was “low nM to sub-nM range”, the apoptosis [4] was “Only cancer cells expressing wild-type p53 underwent apoptosis” and the “S-phase / cell cycle progression” value [5] was “dose-dependent depletion of S-phase”. For the same compound, the growth inhibitory activity ([6]; HCT116, 4 days, FIG. 11) was “potent growth inhibitory activity”, the “specificity over cancer cells expressing mutant p53 (HT-29)” value ([6]; HCT116 versus HT-29) was “greater than 18 fold” and the “specificity over cancer cells expressing mutant p53 (HT-29)” value ([7]; RKO versus HT-29) was “greater than 13 fold”. The growth inhibitory activity ([7]; RKO, 4 days, FIG. 11) was “potent growth inhibitory activity”, the “accumulation of p53 and its target gene-products” value [8] was “induced accumulation of p53 and its target gene-products only in RKO cells expressing wild-type p53” and the cell cycle progression [9] was “no appreciable effect on cell cycle progression”. For the same compound, the “immunoprecipitation of MDM2 by anti-p53 antibody” value (p53-MDM2 interaction) was “disrupts the interaction between p53 and MDM2” and the “S-phase / cell cycle progression” value [10] was “dose-dependent depletion of S-phase”.
`CC(C)C[C@H]1N[C@@H](C(=O)N(C)C)[C@H](c2ccc(Cl)cc2)[C@@]12C(=O)Nc1cc(Cl)ccc12` [Example 1c, (2′R,3S,4′R,5′R) 6-Chloro-4′-(4-Chloro-Phenyl)-2′-Isobutyl-2-Oxo-1,2-Dihydro-Spiro[Indole-3,3′-Pyrrolidine]-5′-Carboxylic Acid Dimethylamide] was tested, and the Ki [1] was 7.7 µM and the “times less potent than 1b (Ki)” value ([1]; relative to 1b) was 26 times.
With `COc1ccc2c(c1)NC(=O)[C@]21[C@@H](CC(C)(C)C)N[C@@H](C(=O)N(C)C)[C@@H]1c1cccc(Br)c1` [Ke-61, (2′R,3S,4′R,5′R) 4′-(3-Bromo-Phenyl)-2′-(2,2-Dimethyl-Propyl)-6-Methoxy-2-Oxo-1,2-Dihydro-Spiro[Indole-3,3′-Pyrrolidine]-5′-Carboxylic Acid Dimethylamide] the “S-phase / cell cycle progression” value [5] was “did not have a significant effect”, the cell cycle progression [9] was “did not have a significant effect” and the “S-phase / cell cycle progression” value [10] was “did not have a significant effect”.
Work on `CCC[C@H]1N[C@@H](C(=O)N(C)C)[C@H](c2cccc(Cl)c2)[C@@]12C(=O)Nc1cc(Cl)ccc12` [Example 1e, (2′R,3S,4′R,5′R) 6-Chloro-4′-(3-Chloro-Phenyl)-2-Oxo-2′-Propyl-1,2-Dihydro-Spiro[Indole-3,3′-Pyrrolidine]-5′-Carboxylic Acid Dimethylamide] yielded a Ki [1] of 0.65 µM and an IC50 [2, 13] of 2.7 µM.
In the case of `CN(C)C(=O)[C@@H]1N[C@H](CC(C)(C)C)[C@]2(C(=O)Nc3cc(Cl)ccc32)[C@H]1c1cccc(Cl)c1` [Example 1d, (2′R,3S,4′R,5′R) 6-Chloro-4′-(3-Chloro-Phenyl)-2-Oxo-2′-(2,2-Dimethylpropyl)-1,2-Dihydro-Spiro[Indole-3,3′-Pyrrolidine]-5′-Carboxylic Acid Dimethylamide], the IC50 ([11]; Homo sapiens, 96 h, PrEC, 4 days, FIG. 8) is reported as 6 µM, the “times less potent in PrEC cells than in LNCaP cells” value ([11]; PrEC versus LNCaP) is reported as 13 times and the IC50 ([12]; Homo sapiens, 96 h, read-out: IC50 inhibition of cell growth) is reported as 22.5 µM. The “times less active in PC-3 cells than in LNCaP cells” value ([12]; PC-3 versus LNCaP) was 27 times and the IC50 ([2]; read-out: IC50 inhibition of cell growth) was 0.83 µM.
`CC(C)CC[C@H]1N[C@@H](C(=O)N(C)C)[C@H](c2cccc(Cl)c2)[C@@]12C(=O)Nc1cc(Cl)ccc12` [Example 1f, (2′R,3S,4′R,5′R) 6-Chloro-4′-(3-Chloro-Phenyl)-2′-(3-Methyl-Butyl)-2-Oxo-1,2-Dihydro-Spiro[Indole-3,3′-Pyrrolidine]-5′-Carboxylic Acid Dimethylamide] showed a Ki [1] of 0.39 µM and an IC50 [2, 13] of 1.9 µM.
